Type in all cases: cell-based
Assay [1] relates to human melanoma cell line A-2058. The assay can be described thus: MTT cell proliferation assay, human melanoma cell line A-2058. The conditions noted are these: for Mean OD: MTT Optical Density at 570 nm. The source says:
This example describes the in vitro bioassay used for determining the anti-proliferative activity of test compounds and cyclodextrin-encapsulated propolis complexes against human skin cancer cell lines. The present example tests anti-proliferative efficacy against the human melanoma cell line, A-2058. The cyclodextrin-encapsulated propolis complexes tested are those described in Example 1. The NZ propolis was the same propolis used to manufacture the cyclodextrin complexes CD1-CD3. The Brazilian Green propolis was the same propolis used to manufacture the cyclodextrin complex CD4. The test samples were dissolved in 15% Ethanol (EtOH)/HBSS to make a working solution, which was then diluted 10 times to give a final concentration in the cells of 50 μg/ml unless indicated otherwise.
(§1) The three human skin cancer cell lines were: • 1) Human Melanoma cell line (A-2058). • 2) Human Epidermoid (Squamous) Carcinoma cell line (A-431). • 3) Human Basal Cell Carcinoma cell line (TE 354.T).
(§2) The cell lines were revived from cryostorage and cultured in the presence of the test and reference samples. An MIT assay was then performed on the cultures to determine the effect of the samples on the cell viability and proliferation. The percentage standard error of the mean was assessed and extreme outliers were removed if the SEM%>15. Preliminary statistical significance was assessed with an independent Student t-test at α<0.05 (with and without outliers). The methodology was based on the procedures reported by: • Ahn, N G, Campbell J S (1993). […] Proc Natl Acad Sci. 90: 5143-5147. • Galan-Cobo, A et al (2014). Functional inhibition of aquaporin-3 with a gold-based compound induces blockage of cell proliferation. J Cellul. Physiol. 229: 1787-1801. • Roomi, M W, Kalinovsky, J et al (2013) Effect of a nutrient mixture on matrix metalloproteinase-9 dimers in various human cancer cell lines. Inter 3 Oncol. 44: 936-942. • Huang, H C, Lin, M K et al (2013). Cardenolides and bufadienolide glycosides from Kalanchoe tubiflora and evaluation of cytotoxicity. Planta Medica. 79: 1362-1369. • Tilli, C M L J, Stavast-Kooy, A J W et al (2003). The garlic-derived organosulfur component ajoene decreases basal cell carcinoma tumor size by inducing apoptosis. Arch Dermatol Res. 295: 117-123.
• 1. Human melanoma cell line (A-2058, ATCC CRL11147) was obtained from ATCC, Bethesda, Md., USA. • 2. Human squamous (epidermoid) carcinoma cell line (A-431, ATCC CRL1555) was obtained from ATCC, Bethesda, Md. USA. • 3. Human basal cell carcinoma cell line (TE 354.T, ATCC CRL7762) was obtained from ATCC, Bethesda, Md., USA. • 4. Dulbecco's Modified Eagle's Medium (DMEM) was obtained from GIBCO (12100-038). 10% Foetal Bovine Serum (FBS), 100 U/ml Penicillin and […] Streptomycin were added before use. • 5. Penicillin-streptomycin solution, stored at −20° C. consisting of 10000 units/ml penicillin and 10 mg/ml streptomycin in 0.9% NaCl was obtained from Sigma (#P-0781). • 6. Trypsin-EDTA solution consisting of 0.25% Trypsin/EDTA was obtained from Invitrogen (#15400054). • 7. Phosphate buffered saline (PBS) was prepared in-house. • 8. Hanks Balanced Salt Solution (HBSS), stored at 4° C. was obtained from GIBCO (#14185-052). • 9. Foetal Bovine Serum (FBS) stored at −20° C. was obtained from GIBCO (#10091-148). • 10. MTT Reagent, 100 mg/vial, was obtained from Sigma (M-2128) and then dissolved in PBS at 10 mg/ml and stored at −20° C. A 5 mg/ml MTT solution was prepared in PBS and stored at 4° C. as the working solution. • 11. MU lysis buffer: 10% sodium dodecyl sulphate (SDS)/45% Dimethyl Formamide was prepared by dissolving 20 g SDS in 100 ml of double-distilled water (DDW), and then adding 90 ml of Dimethyl Formamide to the solution. The pH was adjusted to 4.7 by glacial acetic acid, and DDW added up to a final volume of 200 ml. • 12. 5-Fluorouracil (5-FU) was supplied by Sigma (F-6627). Three working solutions were prepared at 19.5 μg/ml. 6.5 μg/ml and 1.95 μg/ml dissolved in 15% Ethanol/HBSS. […]
(Tetrazolium assays rely on reduction of a dye to a coloured formazan, in cell work by metabolically active cells.)

Assay [2] relates to human epidermoid cancer cell line A-431. The assay can be described thus: MTT cell proliferation assay, human epidermoid (squamous) carcinoma cell line A-431. The following applies: A-431, 200 μg/ml; for % inhibition / inhibition at 200 µg/mL: 24 hr incubation, vs cells only; for Mean OD: MTT Optical Density at 570 nm; for inhibition at 200 µg/mL: Homo sapiens. On the procedure:
as §1, §2
(§3) • 1. Human melanoma cell line (A-2058, ATCC CRL11147) was obtained from ATCC, Bethesda, Md., USA. • 2. Human squamous (epidermoid) carcinoma cell line (A-431, ATCC CRL1555) was obtained from ATCC, Bethesda, Md. USA. • 3. Human basal cell carcinoma cell line (TE 354.T, ATCC CRL7762) was obtained from ATCC, Bethesda, Md., USA. • 4. Dulbecco's Modified Eagle's Medium (DMEM) was obtained from GIBCO (12100-038). 10% Foetal Bovine Serum (FBS), 100 U/ml Penicillin and […] Streptomycin were added before use. • 5. Penicillin-streptomycin solution, stored at −20° C. consisting of 10000 units/ml penicillin and 10 mg/ml streptomycin in 0.9% NaCl was obtained from Sigma (#P-0781). • 6. Trypsin-EDTA solution consisting of 0.25% Trypsin/EDTA was obtained from Invitrogen (#15400054). • 7. Phosphate buffered saline (PBS) was prepared in-house. • 8. Hanks Balanced Salt Solution (HBSS), stored at 4° C. was obtained from GIBCO (#14185-052). • 9. Foetal Bovine Serum (FBS) stored at −20° C. was obtained from GIBCO (#10091-148). • 10. MTT Reagent, 100 mg/vial, was obtained from Sigma (M-2128) and then dissolved in PBS at 10 mg/ml and stored at −20° C. A 5 mg/ml MTT solution was prepared in PBS and stored at 4° C. as the working solution. • 11. MU lysis buffer: 10% sodium dodecyl sulphate (SDS)/45% Dimethyl Formamide was prepared by dissolving 20 g SDS in 100 ml of double-distilled water (DDW), and then adding 90 ml of Dimethyl Formamide to the solution. The pH was adjusted to 4.7 by glacial acetic acid, and DDW added up to a final volume of 200 ml. • 12. 5-Fluorouracil (5-FU) was supplied by Sigma (F-6627). Three working solutions were prepared at 19.5 μg/ml. 6.5 μg/ml and 1.95 μg/ml dissolved in 15% Ethanol/HBSS. Final concentrations were 1.95 μg/ml (15 μM), 0.65 μg/ml (5 μM) and 0.195 μg/ml (1.5 μM).
(§4) • 1. Each of the cell lines was revived from cryostorage. • 2. Following initial propagation using the media described above (Characterisation of Test System, and Medium Preparation), the cell culture was subcultured using trypsin-EDTA. The media was removed and 5ml of the trypsin-EDTA solution added and incubated at 37° C. for 5 min or until all the cells had detached. The trypsin was neutralised by the addition of an equal volume of the relevant medium and centrifugation of the suspension at 300 g (1200 rpm) for 5 min at 4° C. • 3. […]

Assay [3] has as its system human basal carcinoma cell line TE 354.T. Description: MTT cell proliferation assay, human basal cell carcinoma cell line TE 354.T. The following applies: 200 μg/ml; for % inhibition / inhibition at 200 µg/mL: 24 hr incubation, vs cells only; for Mean OD: MTT Optical Density at 570 nm; for inhibition at 200 µg/mL: Homo sapiens. The protocol: as §1, §2, §3, §4
The mark [4] stands for this setting: A-2058, final conc. 200 μg/ml, 24 hr incubation, vs cells only.
Setting [5] is: Homo sapiens, A2058, 24 h, A-2058, final conc. 200 μg/ml, 24 hr incubation, vs cells only.

Where “and” joins values, the source holds several entries; their conditions need not be identical. Equal values may be shown once.

By % inhibition is commonly meant the percentage by which the read-out fell short of the control. Low readings indicate a response near the control, high ones a response far below the control. In general, inhibition refers to the percentage by which the read-out fell short of the control. In the case of `CC(=O)OC1C(=O)c2c(O)cc(O)cc2OC1c1ccccc1` (stereo not drawn) [Pinobanksin-3-o-acetate, pinobanksin-3-acetate], the “Mean OD” value was determined as 0.0777 in assay [1] (A-2058, 200 μg/ml); 0.0253 in assay [2]; 0.2416 in assay [3]. Further, the “% inhibition” value in assay [1] (setting [4]) is given as 61.38%; in assay [2] it was “very strong inhibitors of proliferation”; in assay [3], “weak inhibitors of proliferation”. The inhibition at 200 µg/mL was determined as 61.4% in assay [1] (setting [5]), 90.4% in assay [2] and 10.4% in assay [3].
With `O=C(/C=C/c1ccc(O)c(O)c1)OCCc1ccccc1` [CAPE, caffeic acid phenethyl ester, reference compound], the “Mean OD” value in assay [1] (A-2058, 200 μg/ml) is reported as 0.1018. Further, the “% inhibition” value in assay [1] (setting [4]) is reported as 49.43%. The same compound had an inhibition at 200 µg/mL in assay [1] (setting [5]) of 49.4%.
For `O=C(O)/C=C/C=C/c1ccccc1` [5-phenyl penta-2,4-dienoic acid, 5-phenylpenta-2,4-dienoic acid], in assay [1] (A-2058, 200 μg/ml), the “Mean OD” value worked out at 0.1548. Besides, testing at 200 µg/mL in assay [1] (setting [5]) gave an inhibition of 23.1%.
With `COc1cc(/C=C/C(=O)OCc2ccccc2)ccc1O` [Benzyl ferulate], the “Mean OD” value in assay [1] (A-2058, 200 μg/ml) is 0.0040. Further, in assay [1] (setting [4]), the “% inhibition” value is on record as “completely killed all the melanoma cells”. The compound also registered an inhibition at 200 µg/mL in assay [1] (setting [5]) of 98%.
As to `C=C(C)CCOC(=O)/C=C/c1ccc(O)c(O)c1` [Complex 3M3BC, 3-methyl-3-butenyl caffeate], the “Mean OD” value is 0.1070 in assay [1] (A-2058, 20 μg/ml); 0.0475 in assay [2]; 0.2245 in assay [3]. Besides, the “% inhibition” value in assay [1] (A-2058, final conc. 20 μg/ml, 24 hr incubation, vs cells only) is 46.85%; in assay [2] it was “very strong inhibitors of proliferation”; in assay [3], “weak inhibitors of proliferation”. In assay [1] (Homo sapiens, A2058, 24 h, A-2058, final conc. 20 μg/ml, 24 hr incubation, vs cells only), the inhibition at 20 µg/mL is 46.8%. For the same compound, the results for the inhibition at 200 µg/mL in assay [2] and in assay [3] were 81.9% and 16.7%, respectively.
For `O=C1C[C@@H](c2ccccc2)Oc2cc(O)cc(O)c21` [pinocembrin], the “Mean OD” value in assay [1] (A-2058, 200 μg/ml) was 0.0013. In addition, the “% inhibition” value in assay [1] (setting [4]) is given as “completely killed all the melanoma cells”. Besides, in assay [1] (setting [5]), the inhibition at 200 µg/mL was found to be 99.3%.
`COc1cc(O)c2c(=O)cc(-c3ccccc3)oc2c1` [Tectochrysin]: the “Mean OD” value in assay [1] (A-2058, 200 μg/ml) came to 0.0272. For the same compound, the “% inhibition” value in assay [1] (setting [4]) is 86.5% and 86.48%.
As to `O=C(O)/C=C/c1ccc(O)cc1` [p-coumaric acid, reference compound], in assay [1] (A-2058, 200 μg/ml), the “Mean OD” value is 0.2136. The compound also gave an inhibition at 200 µg/mL in assay [1] (setting [5]) of 0%.
